According to US11155546B2, “4,6,7-trisubstituted 1,2-dihydropyrrolo[3,4-c]pyridin/pyrimidin-3-one derivatives and uses thereof” (SHANGHAI HAIYAN PHARMACEUTICAL TECHNOLOGY CO., LTD., priority 2017, dated 2021):

Legend:
in vivo = conditions: for AUC / Cmax / Tmax / bioavailability / half-life / Area under curve AUC / Maximum blood concentration Cmax / Oral relative bioavailability F (%) / half-time T1/2: mouse, in vivo, po, 30 mg/kg
Outline: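 Fasted male ICR mice received 30 mg/kg intragastrically, formulated in 5% DMSO / 95% pH 4.5 acetate buffer with 20% 2-hydroxypropyl-β-cyclodextrin. Plasma was sampled at 0.083–24 h (alternating groups of three) and analysed by LC-MS/MS after acetonitrile precipitation; the calibration range was 1.00-3000 ng/mL.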

wild-type EGFR kinase = wild-type EGFR kinase (Homo sapiens (Human), UniProt P00533); assay: Wild type EGFR kinase inhibition test (z-lyte); format: biochemical; conditions: 10 μM ATP; read-out: EGFR WT IC50
Outline: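 Z-lyte FRET read-out, emission ratio coumarin 450 nm/fluorescein 520 nm converted to phosphorylation ratio, then inhibition relative to control. IC50 obtained by curve fitting.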

βBTK Y223 = βBTK Y223 (Homo sapiens (Human), UniProt Q06187); assay: Intracellular βBTK Y223 phosphorylation HTRF in Ramos cells; format: cell-based
Protocol: The compound was predissolved in 100% DMSO. […] 20 μl of lysate (4× lysate: blocked mother liquor is 25:1) was added to each well and incubated for 30 minutes at 25° C. on a shaker. It was shaken on an oscillator at 800 rpm for 1 minute. […] The half-inhibitory concentration IC50 was calculated by fitting with XLFIT 5.0 software (IDBS, UK).

BTK WT = BTK WT (Homo sapiens (Human), UniProt Q06187); assay: Lantha screening kinase reaction, inhibition of BTK WT; format: biochemical
Outline: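 Wild-type BTK kinase reaction with compound at 10-0.005 μM final, 60 minutes at 25° C in the dark; stopped with 5 mM EDTA plus 0.2 nM Tb PY20 antibody, 30 minutes. TR-FRET 520/500 nm ratio gave inhibition versus enzyme-only and blank wells; IC50 from curve fitting.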

wild-type EGFR kinase, sequence (P00533 25-1210): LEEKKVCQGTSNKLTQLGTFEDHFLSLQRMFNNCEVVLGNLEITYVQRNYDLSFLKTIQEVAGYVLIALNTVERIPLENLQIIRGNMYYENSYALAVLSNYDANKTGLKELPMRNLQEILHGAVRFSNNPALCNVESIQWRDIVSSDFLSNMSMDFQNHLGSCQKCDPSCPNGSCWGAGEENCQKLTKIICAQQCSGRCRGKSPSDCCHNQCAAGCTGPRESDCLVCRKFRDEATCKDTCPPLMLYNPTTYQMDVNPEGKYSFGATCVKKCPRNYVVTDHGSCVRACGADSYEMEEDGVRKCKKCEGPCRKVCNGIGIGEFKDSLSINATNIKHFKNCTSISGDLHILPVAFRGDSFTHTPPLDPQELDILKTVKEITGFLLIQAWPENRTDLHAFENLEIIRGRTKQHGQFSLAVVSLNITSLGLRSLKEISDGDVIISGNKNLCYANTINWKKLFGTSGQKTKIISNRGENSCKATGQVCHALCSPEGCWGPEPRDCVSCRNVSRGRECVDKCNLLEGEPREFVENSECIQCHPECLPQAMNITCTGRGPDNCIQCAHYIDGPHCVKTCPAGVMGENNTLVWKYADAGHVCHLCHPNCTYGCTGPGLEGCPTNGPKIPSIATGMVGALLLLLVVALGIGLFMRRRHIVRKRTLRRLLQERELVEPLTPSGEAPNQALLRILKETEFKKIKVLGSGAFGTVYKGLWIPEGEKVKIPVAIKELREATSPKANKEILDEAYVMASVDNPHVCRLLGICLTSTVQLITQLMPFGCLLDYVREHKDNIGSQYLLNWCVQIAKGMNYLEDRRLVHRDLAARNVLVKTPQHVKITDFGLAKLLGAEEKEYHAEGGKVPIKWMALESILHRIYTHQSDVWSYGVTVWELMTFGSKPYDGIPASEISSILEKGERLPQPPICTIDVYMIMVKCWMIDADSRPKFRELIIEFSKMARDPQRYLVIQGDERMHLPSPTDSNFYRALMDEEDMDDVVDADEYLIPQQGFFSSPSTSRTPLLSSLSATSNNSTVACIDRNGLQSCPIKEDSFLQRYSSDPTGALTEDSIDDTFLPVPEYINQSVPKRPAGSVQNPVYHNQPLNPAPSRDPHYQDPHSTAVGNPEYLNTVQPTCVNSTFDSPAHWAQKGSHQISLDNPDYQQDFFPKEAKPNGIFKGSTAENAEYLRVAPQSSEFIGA
βBTK Y223, sequence (Q06187 whole entry): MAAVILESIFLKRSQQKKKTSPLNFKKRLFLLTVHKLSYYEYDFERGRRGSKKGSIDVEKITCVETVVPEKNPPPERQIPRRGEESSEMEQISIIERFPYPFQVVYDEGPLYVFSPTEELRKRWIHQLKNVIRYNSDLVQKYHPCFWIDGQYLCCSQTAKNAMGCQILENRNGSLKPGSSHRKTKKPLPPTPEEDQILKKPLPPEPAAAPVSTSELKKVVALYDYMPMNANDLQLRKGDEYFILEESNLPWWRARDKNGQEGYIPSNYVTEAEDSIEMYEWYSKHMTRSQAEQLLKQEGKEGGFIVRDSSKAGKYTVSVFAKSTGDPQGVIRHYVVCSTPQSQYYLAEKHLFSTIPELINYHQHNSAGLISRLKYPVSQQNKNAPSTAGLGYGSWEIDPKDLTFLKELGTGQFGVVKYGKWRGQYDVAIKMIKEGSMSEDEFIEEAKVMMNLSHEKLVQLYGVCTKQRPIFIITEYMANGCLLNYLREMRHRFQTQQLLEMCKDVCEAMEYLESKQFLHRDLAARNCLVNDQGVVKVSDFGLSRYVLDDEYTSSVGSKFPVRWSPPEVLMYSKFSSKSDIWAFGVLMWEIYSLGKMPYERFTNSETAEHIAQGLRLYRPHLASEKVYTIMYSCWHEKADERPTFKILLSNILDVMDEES
BTK WT, sequence (Q06187 whole entry): as above

## C=CC(=O)N1CC(Nc2nc(-c3cnn(C)c3)c3c(c2F)CNC3=O)CCC1C (stereo not drawn) [Compound G-26, 6-(1-acryloyl-6-methylpiperidin-3-ylamino)-7-fluoro-4-(1-methyl-1H-pyrazole-4-yl)-1H-pyrrolo[3,4-c]pyridine-3(2H)-one]
In vivo; male, ICR
  AUC: 1290 ng·h/mL
  Cmax: 2400 ng/mL
  Tmax: 4.8 min
  bioavailability: 13.1%
  half-life: 127 min
wild-type EGFR kinase
  IC50: 6690 nM
βBTK Y223
  IC50: 47 nM
BTK WT
  IC50: 27 nM

## C=CC(=O)N1CCCC(Nc2nc(Nc3ccc(N4CCOCC4)c(Cl)c3)c3c(c2F)CNC3=O)C1 (stereo not drawn) [Compound G-39]
In vivo
  Area under curve AUC: 1182 ng·h/mL
  Maximum blood concentration Cmax: 1501.0 ng/mL
  Oral relative bioavailability F (%): 15.2%
  Tmax: 4.8 min
  half-time T1/2: 138 min
wild-type EGFR kinase
  IC50: 6310 nM
βBTK Y223
  IC50: 3 nM
BTK WT
  IC50: 2 nM

## C=CC(=O)N1CCCC(Nc2nc(-c3cnn(C)c3)c3c(c2F)CNC3=O)C1 (stereo not drawn) [Compound G-7, 6-(1-acryloylpiperidin-3-ylamino)-7-fluoro-4-(1-methyl-1H-pyrazole-4-yl)-1H-pyrrolo[3,4-c]pyridine-3(2H)-one]
In vivo; male, ICR
  AUC: 1330 ng·h/mL
  Cmax: 1830 ng/mL
  Tmax: 4.8 min
  bioavailability: 25.4%
  half-life: 93 min
wild-type EGFR kinase
  IC50: 3950 nM
βBTK Y223
  IC50: 11 nM
BTK WT
  IC50: 35 nM

## C=CC(=O)N1CCCC(N(C)c2nc(-c3cnn(C)c3)c3c(c2F)CNC3=O)C1 (stereo not drawn) [Compound G-60, 6-((1-acryloylpiperidin-3-yl)(methyl)amino)-7-fluoro-4-(1-methyl-1H-pyrazole-4-yl)-1H-pyrrolo[3.4-c]pyridine-3 (2H)-one]
In vivo; ICR mice, PO 30 mg/kg, pairs G-7/G-60, G-14/G-71, G-23/G-72
  efficacy of the compound in mice compared with the compound without substituent on the nitrogen atom attached to the piperidine ring: significantly lower
In vivo
  Area under curve AUC: 109 ng·h/mL
  Maximum blood concentration Cmax: 351.7 ng/mL
  Oral relative bioavailability F (%): 3%
  Tmax: 4.8 min
  half-time T1/2: 634.2 min
wild-type EGFR kinase
  IC50: > 10000 nM
βBTK Y223
  IC50: 24 nM
BTK WT
  IC50: 9 nM
